Measured values taken from Sander's compilation of Henry's law constants (doi:10.1021/je3010535).

assay: Henry solubility constant Hcp at 298.15 K (mol/(m3 Pa)); conditions: reference: Hiatt (2013)

Structure (SMILES)	Henry solubility constant Hcp
ClCC(Cl)(Cl)Cl [1,1,1,2-tetrachloroethane]	0.0048
CC(Cl)(Cl)Cl [1,1,1-trichloroethane]	0.00069
ClC(Cl)C(Cl)Cl [1,1,2,2-tetrachloroethane]	0.033
[2H]C([2H])(Cl)C([2H])(Cl)Cl [1,1,2-trichloroethane-d3]	0.013
ClCC(Cl)Cl [1,1,2-trichloroethane]	0.014
C=C(Cl)Cl [1,1-dichloroethene]	0.00041
CC=C(Cl)Cl [1,1-dichloropropene]	0.00061
[2H]c1c([2H])c(Cl)c(Cl)c(Cl)c1[2H] [1,2,3-trichlorobenzene-d3]	0.015
Clc1cccc(Cl)c1Cl [1,2,3-trichlorobenzene]	0.015
ClCC(Cl)CCl [1,2,3-trichloropropane]	0.042
Cc1ccc(C)c(C)c1 [1,2,4-trimethylbenzene]	0.0032
ClCC(Br)CBr (configuration not stated) [1,2-dibromo-3-chloropropane]	0.097
[2H]C([2H])([2H])C([2H])(Cl)C([2H])([2H])Cl (configuration not stated) [1,2-dichloropropane-d6]	0.0036
CC(Cl)CCl (configuration not stated) [1,2-dichloropropane]	0.0043
[2H]c1c([2H])c([2H])c(C([2H])([2H])[2H])c(C([2H])([2H])[2H])c1[2H] [1,2-dimethylbenzene-d10]	0.003
Cc1ccccc1C [1,2-dimethylbenzene]	0.0032
Cc1cc(C)cc(C)c1 [1,3,5-trimethylbenzene]	0.0023
Clc1cccc(Cl)c1 [1,3-dichlorobenzene]	0.0052
ClCCCCl [1,3-dichloropropane]	0.013
Clc1ccc(Cl)cc1 [1,4-dichlorobenzene]	0.0058
Fc1ccc(Br)cc1 [1-bromo-4-fluorobenzene]	0.0053
Cc1ccc(Cl)cc1 [1-chloro-4-methylbenzene]	0.0041
Cc1ccc(C(C)C)cc1 [1-methyl-4-(1-methylethyl)-benzene]	0.0018

Structure (SMILES)	Henry solubility constant Hcp
[2H]c1c([2H])c([2H])c2c(C([2H])([2H])[2H])c([2H])c([2H])c([2H])c2c1[2H] [1-methylnaphthalene-d10]	0.046
Cc1cccc2ccccc12 [1-methylnaphthalene]	0.044
[2H]c1c([2H])c([2H])c(C(C)=O)c([2H])c1[2H] [1-phenylethanone-d5]	2.3
CC(=O)c1ccccc1 [1-phenylethanone]	0.97
CC(C)(Cl)Cl [2,2-dichloropropane]	0.00044
[2H]C([2H])(O)C([2H])([2H])Cl [2-chloroethanol-d4]	5
[2H]C([2H])([2H])C(=O)C([2H])([2H])CCC [2-hexanone-1,1,1,3,3-d5]	0.17
CCCCC(C)=O [2-hexanone]	0.15
COCCO [2-methoxyethanol]	4.4
CCCCC(C)CO (configuration not stated) [2-methyl-1-hexanol]	0.69
Cc1ccc2ccccc2c1 [2-methylnaphthalene]	0.035
CC(C)O [2-propanol]	1.1
C=CC#N [2-propenenitrile]	0.12
Cc1cc(C(C)(C)C)cc(C(C)(C)C)c1 [3,5-di-tert-butyltoluene]	0.0037
Cc1cc(Br)cc(Br)c1 [3,5-dibromotoluene]	0.017
C=CCCl [3-chloro-1-propene]	0.0013
CC(=O)CC(C)C [4-methyl-2-pentanone]	0.1
CC(C)(C)c1ccccc1 [(1,1-dimethylethyl)-benzene]	0.0016
CCC(C)c1ccccc1 (configuration not stated) [(1-methylpropyl)-benzene]	0.0013
CC(C)c1ccccc1 [(2-propyl)-benzene]	0.0014
ClC/C=C/CCl [(E)-1,4-dichloro-2-butene]	0.035
ClC/C=C\CCl [(Z)-1,4-dichloro-2-butene]	0.03
ClCc1ccccc1 [(chloromethyl)-benzene]	0.02

Structure (SMILES)	Henry solubility constant Hcp
[2H]c1c([2H])c([2H])c([2H])c([2H])c1[2H] [benzene-d6]	0.0018
c1ccccc1 [benzene]	0.0018
[2H]c1c([2H])c([2H])c(Br)c([2H])c1[2H] [bromobenzene-d5]	0.0065
Brc1ccccc1 [bromobenzene]	0.006
ClCBr [bromochloromethane]	0.0066
ClC(Cl)Br [bromodichloromethane]	0.0052
CBr [bromomethane]	0.0013
CCCCc1ccccc1 [butylbenzene]	0.002
S=C=S [carbon disulfide]	0.00057
[2H]c1c([2H])c([2H])c(Cl)c([2H])c1[2H] [chlorobenzene-d5]	0.0036
Clc1ccccc1 [chlorobenzene]	0.0037
CCCl [chloroethane]	0.00085
[2H]C([2H])=C([2H])Cl [chloroethene-d3]	0.00038
C=CCl [chloroethene]	0.00039
Cl/C=C\CCl [cis-1,3-dichloropropene]	0.0095
C1CCCCC1 [cyclohexane]	0.00032
Fc1c(F)c(F)c(-c2c(F)c(F)c(F)c(F)c2F)c(F)c1F [decafluorobiphenyl]	0.0067
ClC(Br)Br [dibromochloromethane]	0.011
BrCBr [dibromomethane]	0.012
FC(F)(Cl)Cl [dichlorodifluoromethane]	0.00013
[2H]C([2H])(Cl)Cl [dichloromethane-d2]	0.0038
ClCCl [dichloromethane]	0.004
[2H]C([2H])([2H])C([2H])([2H])OC([2H])([2H])C([2H])([2H])[2H] [diethyl ether-d10]	0.013

Structure (SMILES)	Henry solubility constant Hcp
CCOCC [diethyl ether]	0.011
CC#N [ethanenitrile]	0.6
C=Cc1ccccc1 [ethenylbenzene]	0.0044
CCO[13C](C)=O [ethyl ethanoate-1-13C]	0.071
[2H]c1c([2H])c([2H])c(C([2H])([2H])C([2H])([2H])[2H])c([2H])c1[2H] [ethylbenzene-d10]	0.002
CCc1ccccc1 [ethylbenzene]	0.002
Fc1ccccc1 [fluorobenzene]	0.0016
ClC(Cl)=C(Cl)C(Cl)=C(Cl)Cl [hexachlorobutadiene]	0.0023
Fc1c(F)c(F)c(F)c(F)c1F [hexafluorobenzene]	0.00055
CI [iodomethane]	0.0018
COC(C)=O [methyl ethanoate]	0.12
C=C(C)C(=O)OC [methyl methacrylate]	0.043
[2H]c1c([2H])c([2H])c(C([2H])([2H])[2H])c([2H])c1[2H] [methylbenzene-d8]	0.002
Cc1ccccc1 [methylbenzene]	0.0021
[2H]C([2H])([2H])C1([2H])C([2H])([2H])C([2H])([2H])C([2H])([2H])C([2H])([2H])C1([2H])[2H] [methylcyclohexane-d14]	0.00031
CC1CCCCC1 [methylcyclohexane]	0.00032
[2H]c1c([2H])c([2H])c2c([2H])c([2H])c([2H])c([2H])c2c1[2H] [naphthalene-d8]	0.035
c1ccc2ccccc2c1 [naphthalene]	0.033
[2H]c1c([2H])c([2H])c([N+](=O)[O-])c([2H])c1[2H] [nitrobenzene-d5]	0.85
O=[N+]([O-])c1ccccc1 [nitrobenzene]	0.64
ClC(Cl)C(Cl)(Cl)Cl [pentachloroethane]	0.0059
Fc1cc(F)c(F)c(F)c1F [pentafluorobenzene]	0.00075
C[13C](C)=O [propanone-2-13C]	0.31
